# According to PMC10961402, “Safety, tolerability, pharmacokinetics and pharmacokinetic-pharmacodynamic modeling of cetagliptin in patients with type 2 diabetes mellitus” (Frontiers in Endocrinology, 2024):
# Columns and labels:
# DPP-4 activity = details: healthy subjects; once-daily oral dose of ≧50 mg, multiple doses; cited from earlier work
# [1] = parameters: method as in PMID 34655432; details: healthy subjects; single oral doses of 12.5 to 400 mg; cited from earlier work
# [2] = Preliminary efficacy evaluation (FPG, 2 h PPG, HbA1c, GA); assay type: in vivo, human; details: patients with T2DM
# Protocol: Blood samples for determination of fasting plasma glucose (FPG) and 2 hour postprandial plasma glucose (2 h PPG) were collected on day -2, day 7 and day 14. Additionally, blood samples for determination of glycated Hemoglobin A1C (HbA1c) and glycated Albumin (GA) were collected on day -2 and day 14. The changes of the above indexes relative to pre-treatment baseline (day -2) were evaluated and compared to investigate the preliminary efficacy of investigational product.
# plasma active GLP-1 = assay: Plasma active GLP-1 concentration change from baseline (ELISA); assay type: in vivo, human; details: patients with T2DM; for GLP-1 Baseline (value before dosing): day 1 before dosing; for increase of plasma active GLP-1 AUEC0-24h compared with placebo group: after multiple dosing; for △GLP-1 TRmax,ss / △GLP-1 TRmax: median (range)
# Protocol: Blood samples for GLP-1 activity evaluation were collected at the same time points as for PK. 2 mL blood samples were collected for GLP-1 activity detection (20 μL DPP-4i was added to blood-collecting tubes beforehand). The tubes were placed on ice until centrifugation. The blood samples were centrifuged at 2-8°C, 1500 g for 10 minutes within 1 hour after blood collection. After centrifugation, the blood samples were evenly divided into two aliquots and stored at -80 ± 10°C. Plasma active GLP-1 concentrations were determined using a validated ELISA method. Linear calibration curves were obtained in the concentration range of 0.017-276 pM ([31]).
# The change of GLP-1 concentration from baseline (△GLP-1) was calculated as follows:
# Δ [GLP-1] = [GLP-1] (t) - [GLP-1] (0)
# The calculated parameters for GLP-1 activity were as follows: the baseline GLP-1 value before dosing (Baseline), Rmax, TRmax, AUEC0-t, AUEC0-24h, GLP-1 concentration change at 2 h after lunch (△GLP-1-6h), GLP-1 concentration change at 2 h after dinner (△GLP-1-12h), Rmin on day 14, and the average response on day 14 (Ravg).
# [3] = Plasma pharmacokinetics after single and multiple oral doses (non-compartmental analysis); assay type: in vivo, human; details: patients with T2DM; for Tmax,ss / Tmax: median (range)
# Protocol: This was a single-center, randomized, double-blind, placebo and positive-controlled, single and multiple oral-dose study. A total of 32 Chinese adults diagnosed with T2DM were recruited for this study and allocated into two dosage groups: 50 mg and 100 mg, each consisting of 16 participants. […] The positive control was designed as open label. […] Subjects underwent medication randomization on day -1, and were assigned the corresponding investigational products. They were orally administered to the drug once every morning on fasting condition for 14 consecutive days. […] After finished the dosing, another OGTT was performed on day 15. Blood samples were collected at designated time points for the analysis of PK/PD and exploratory indicators. Subjects were discharged after completion of the safety assessments on day 19. […] PK parameters were calculated using non-compartmental analysis with Phoenix WinNonlin (version 8.1, Certara, Co., Princeton, NJ, United States). Peak plasma concentration after administration (Cmax) and time to reach Cmax (Tmax) were obtained directly from the observed data, elimination half-life (t1/2) was calculated as ln2/λz using the best fit mode, where λz was the terminal elimination rate constant. Area under the plasma concentration-time curve from zero to the last measurable concentration (AUC0-t) was estimated using the linear trapezoidal method and AUC from zero to infinity (AUC0-∞) was calculated as AUC0-t+Ct/λz, where Ct was the last measured concentration. […] Apparent total plasma clearance after non-intravenous (CL/F) and apparent volume of distribution in terminal phase after non-intravenous (Vz/F) were calculated as Dose/AUC0-∞ and CL/λz, respectively.
# [4] = 50 mg oral once daily, day 14, listed as cetagliptin
# [5] = 100 mg oral once daily, day 14, listed as cetagliptin
# [6] = 50 mg oral once daily, listed as cetagliptin
# [7] = 100 mg oral once daily, listed as cetagliptin
compound,measurement,setting,value
"C[C@@H]1c2cnc(C(F)(F)F)n2CCN1C(=O)C[C@H](N)Cc1cc(F)c(F)cc1F.O=P(O)(O)O [Cetagliptin, cetagliptin]",sustained DPP-4 inhibition,DPP-4 activity,≥ 80%
same,dose-limiting toxicity,[1],no dose-limiting toxicity observed
same,change of FPG relative to baseline (day -2),"[2]; 50 mg once daily, day 7",0.49 mmol/L
same,mean change value of 2h postprandial blood glucose concentration compared with baseline,"[2]; 50 mg once daily, day 7, 2 h after breakfast",-1.54 ± 2.25 mmol/L
same,mean change value of 2h postprandial blood glucose concentration compared with baseline,"[2]; 50 mg once daily, day 7, 2 h after lunch",-0.29 ± 2.34 mmol/L
same,mean change value of 2h postprandial blood glucose concentration compared with baseline,"[2]; 50 mg once daily, day 7, 2 h after supper",-1.30 ± 2.50 mmol/L
same,change of FPG relative to baseline (day -2),"[2]; 50 mg once daily, day 14",0.56 mmol/L
same,change of GA relative to baseline (day -2),"[2]; 50 mg once daily, day 14",0.53%
same,decrease of HbA1c compared with baseline,"[2]; 50 mg once daily, day 14",0.47%
same,mean change value of 2h postprandial blood glucose concentration compared with baseline,"[2]; 50 mg once daily, day 14, 2 h after lunch",-0.66 ± 2.26 mmol/L
same,mean change value of 2h postprandial blood glucose concentration compared with baseline,"[2]; 50 mg once daily, day 14, 2 h after supper",-2.64 ± 2.07 mmol/L
same,decrease of 2 h PPG compared with baseline,"[2]; 50 mg once daily, day 14 after dinner",2.64 mmol/L
same,change of FPG relative to baseline (day -2),"[2]; 100 mg once daily, day 7",-0.11 mmol/L
same,mean change value of 2h postprandial blood glucose concentration compared with baseline,"[2]; 100 mg once daily, day 7, 2 h after breakfast",-0.54 ± 2.47 mmol/L
same,mean change value of 2h postprandial blood glucose concentration compared with baseline,"[2]; 100 mg once daily, day 7, 2 h after lunch",-0.61 ± 2.16 mmol/L
same,mean change value of 2h postprandial blood glucose concentration compared with baseline,"[2]; 100 mg once daily, day 7, 2 h after supper",1.64 ± 3.22 mmol/L
same,change of FPG relative to baseline (day -2),"[2]; 100 mg once daily, day 14",0.43 mmol/L
same,change of GA relative to baseline (day -2),"[2]; 100 mg once daily, day 14",-1.70%
same,decrease of HbA1c compared with baseline,"[2]; 100 mg once daily, day 14",0.35%
same,mean change value of 2h postprandial blood glucose concentration compared with baseline,"[2]; 100 mg once daily, day 14, 2 h after lunch",1.16 ± 2.05 mmol/L
same,mean change value of 2h postprandial blood glucose concentration compared with baseline,"[2]; 100 mg once daily, day 14, 2 h after supper",2.56 ± 2.48 mmol/L
same,GLP-1 Baseline (value before dosing),plasma active GLP-1; 50 mg group,0.491 ± 0.815 pM
same,accumulation ratios of Rmax and AUEC0-24 h for plasma active GLP-1,plasma active GLP-1; 50 mg once daily,about 1.5
same,increase of plasma active GLP-1 AUEC0-24h compared with placebo group,plasma active GLP-1; 50 mg once daily,2.20 fold
same,"R0h,ss (baseline plasma active GLP-1 on day 14)","plasma active GLP-1; 50 mg oral once daily, day 14",1.787 ± 1.046 pM
same,△GLP-1-6h (change at 2 h after lunch),"plasma active GLP-1; 50 mg oral once daily, day 14",4.145 ± 0.920 pM
same,△GLP-1-12h (change at 2 h after dinner),"plasma active GLP-1; 50 mg oral once daily, day 14",3.880 ± 1.641 pM
same,△GLP-1 AUEC0-24h,"plasma active GLP-1; 50 mg oral once daily, day 14",57.8 ± 22.7 pM·h
same,"△GLP-1 Ravg,ss","plasma active GLP-1; 50 mg oral once daily, day 14",2.408 ± 0.944 pM
same,"△GLP-1 Rmax,ss","plasma active GLP-1; 50 mg oral once daily, day 14",5.891 ± 1.692 pM
same,"R0h,ss (baseline plasma active GLP-1 on day 14)",plasma active GLP-1; [4],1.787 pM
same,"△GLP-1 TRmax,ss","plasma active GLP-1; 50 mg oral once daily, day 14",5.00 (5.00-12.00) h
same,△GLP-1-6h (change at 2 h after lunch),"plasma active GLP-1; 50 mg oral, day 1",2.457 ± 1.135 pM
same,△GLP-1-12h (change at 2 h after dinner),"plasma active GLP-1; 50 mg oral, day 1",2.887 ± 0.981 pM
same,△GLP-1 AUEC0-24h,"plasma active GLP-1; 50 mg oral, day 1",42.6 ± 10.0 pM·h
same,△GLP-1 Rmax,"plasma active GLP-1; 50 mg oral, day 1",3.866 ± 1.031 pM
same,△GLP-1 TRmax,"plasma active GLP-1; 50 mg oral, day 1",5.00 (5.00-12.00) h
same,GLP-1 Baseline (value before dosing),plasma active GLP-1; 100 mg group,0.434 ± 0.393 pM
same,accumulation ratios of Rmax and AUEC0-24 h for plasma active GLP-1,plasma active GLP-1; 100 mg once daily,about 1.5
same,increase of plasma active GLP-1 AUEC0-24h compared with placebo group,plasma active GLP-1; 100 mg once daily,3.36 fold
same,"R0h,ss (baseline plasma active GLP-1 on day 14)","plasma active GLP-1; 100 mg oral once daily, day 14",1.858 ± 1.186 pM
same,△GLP-1-6h (change at 2 h after lunch),"plasma active GLP-1; 100 mg oral once daily, day 14",7.006 ± 3.171 pM
same,△GLP-1-12h (change at 2 h after dinner),"plasma active GLP-1; 100 mg oral once daily, day 14",5.648 ± 1.810 pM
same,△GLP-1 AUEC0-24h,"plasma active GLP-1; 100 mg oral once daily, day 14",88.2 ± 29.6 pM·h
same,"△GLP-1 Ravg,ss","plasma active GLP-1; 100 mg oral once daily, day 14",3.673 ± 1.234 pM
same,"△GLP-1 Rmax,ss","plasma active GLP-1; 100 mg oral once daily, day 14",7.868 ± 2.565 pM
same,"R0h,ss (baseline plasma active GLP-1 on day 14)",plasma active GLP-1; [5],1.858 pM
same,"△GLP-1 TRmax,ss","plasma active GLP-1; 100 mg oral once daily, day 14",6.00 (5.00-12.00) h
same,△GLP-1-6h (change at 2 h after lunch),"plasma active GLP-1; 100 mg oral, day 1",4.269 ± 2.232 pM
same,△GLP-1-12h (change at 2 h after dinner),"plasma active GLP-1; 100 mg oral, day 1",3.600 ± 2.410 pM
same,△GLP-1 AUEC0-24h,"plasma active GLP-1; 100 mg oral, day 1",63.1 ± 34.3 pM·h
same,△GLP-1 Rmax,"plasma active GLP-1; 100 mg oral, day 1",6.026 ± 3.823 pM
same,△GLP-1 TRmax,"plasma active GLP-1; 100 mg oral, day 1",5.00 (5.00-12.00) h
same,"RAUC (accumulation ratio of AUC0-24h, day 14/day 1)",[3]; 50 mg oral once daily,2.13 ± 0.225
same,"RCmax (accumulation ratio of Cmax, day 14/day 1)",[3]; 50 mg oral once daily,2.01 ± 0.417
same,AUC0-24h,"[3]; 50 mg oral once daily, day 14",1530 ± 274 ng·h/mL
same,AUC0-∞,"[3]; 50 mg oral once daily, day 14",2710 ± 577 ng·h/mL
same,AUC(0-t),"[3]; 50 mg oral once daily, day 14",2510 ± 512 ng·h/mL
same,CLss/F,"[3]; 50 mg oral once daily, day 14",33.6 ± 5.86 L/h
same,Cavg,"[3]; 50 mg oral once daily, day 14",63.9 ± 11.4 ng/mL
same,"Cmax,ss","[3]; 50 mg oral once daily, day 14",162 ± 58.1 ng/mL
same,"Vz,ss/F","[3]; 50 mg oral once daily, day 14",2010 ± 610 L
same,t1/2,"[3]; 50 mg oral once daily, day 14",41.9 ± 11.0 h
same,CLss/F,[3]; [4],33.6 L/h
same,"Tmax,ss","[3]; 50 mg oral once daily, day 14",1.00 (0.500-5.00) h
same,"RAUC (accumulation ratio of AUC0-24h, day 14/day 1)",[3]; [6],2.13
same,"RCmax (accumulation ratio of Cmax, day 14/day 1)",[3]; [6],2.01
same,AUC0-24h,"[3]; 50 mg oral, day 1",717 ± 86.0 ng·h/mL
same,Cmax,"[3]; 50 mg oral, day 1",80.5 ± 23.3 ng/mL
same,Tmax,"[3]; 50 mg oral, day 1",2.00 (1.00-4.00) h
same,"RAUC (accumulation ratio of AUC0-24h, day 14/day 1)",[3]; 100 mg oral once daily,1.75 ± 0.305
same,"RCmax (accumulation ratio of Cmax, day 14/day 1)",[3]; 100 mg oral once daily,1.49 ± 0.542
same,AUC0-24h,"[3]; 100 mg oral once daily, day 14",3120 ± 263 ng·h/mL
same,AUC0-∞,"[3]; 100 mg oral once daily, day 14",4780 ± 361 ng·h/mL
same,AUC(0-t),"[3]; 100 mg oral once daily, day 14",4580 ± 356 ng·h/mL
same,CLss/F,"[3]; 100 mg oral once daily, day 14",32.2 ± 2.57 L/h
same,Cavg,"[3]; 100 mg oral once daily, day 14",130 ± 11.0 ng/mL
same,"Cmax,ss","[3]; 100 mg oral once daily, day 14",300 ± 46.9 ng/mL
same,"Vz,ss/F","[3]; 100 mg oral once daily, day 14",1640 ± 628 L
same,t1/2,"[3]; 100 mg oral once daily, day 14",34.9 ± 12.3 h
same,CLss/F,[3]; [5],32.2 L/h
same,"Tmax,ss","[3]; 100 mg oral once daily, day 14",1.00 (0.500-3.00) h
same,"RAUC (accumulation ratio of AUC0-24h, day 14/day 1)",[3]; [7],1.75
same,"RCmax (accumulation ratio of Cmax, day 14/day 1)",[3]; [7],1.49
same,AUC0-24h,"[3]; 100 mg oral, day 1",1830 ± 347 ng·h/mL
same,Cmax,"[3]; 100 mg oral, day 1",219 ± 72.3 ng/mL
same,Tmax,"[3]; 100 mg oral, day 1",1.00 (1.00-3.00) h
same,mean t1/2 (half-life),"[3]; multiple oral doses, range over 50 mg and 100 mg groups",34.9 to 41.9 h
same,time of daily dosing after which steady-state conditions were reached,"[3]; once daily dosing, trough concentrations days 7, 10, 14",1 week
